Where two headings read alike, the source gives them in different places. Where no end group is shown, it is not given here.
What was measured:
Assay in all cases: biochemical
Type in all cases: binding
DRB1*0404 = DRB1*0404 (Homo sapiens, UniProt P01903+P01911, A100R/A169T/F76Y/I96L/K127E/L162R/M171V/N62H/P40V/Q125Y/R42H/S133A/S149N/S66Y/V209L/W38E); settings: IC50 nM to purified HLA DRB1*0404
DRB1*0101 = target: T1, DRB1*0101 (Homo sapiens, UniProt P01903+P01911, A100R/D57E/F55L/F60I/F76Y/I96L/L162R/M171V/P40L/Q125E/R42F/V115G/Y59C); settings: IC50 nM to purified HLA DRB1*0101
T1 construct: made in house; host or cells: EBV-transformed homozygous human B cell lines, transfected fibroblasts or single-allele 721.221 transfectants

DRB1*0405 = DRB1*0405 (Homo sapiens, UniProt P01903+P01911, A100R/A169T/D86S/F76Y/I96L/K127E/L162R/M171V/N62H/P40V/Q125Y/R42H/S133A/S149N/S66Y/V115G/V209L/W38E); settings: read-out: IC50 nM to purified HLA DRB1*0405
DRB1*0301 = target: T2, DRB1*0301 (Homo sapiens, UniProt P01903+P01911, A100K/A102G/A103R/A169T/F55Y/I96L/K41T/L162R/M171V/P40S/Q125H/Q178H/Q39Y/R42S/S66N/T106N/T262R/W38E/Y61H)
T2 construct: made in house; host or cells: EBV-transformed homozygous human B cell lines, transfected fibroblasts or single-allele 721.221 transfectants

DRB1*0401 = target: T3, DRB1*0401 (Homo sapiens, UniProt P01903+P01911, A100K/A169T/F76Y/I96L/K127E/L162R/M171V/N62H/P40V/Q125Y/R42H/S133A/S149N/S66Y/V115G/V209L/W38E); settings: read-out: IC50 nM to purified HLA DRB1*0401
T3 construct: made in house; host or cells: EBV-transformed homozygous human B cell lines, transfected fibroblasts or single-allele 721.221 transfectants

DRB1*1302 = DRB1*1302 (Homo sapiens, UniProt P01903+P01911, A100E/A169T/K41T/L162R/M171V/P40S/Q125H/Q178H/Q39Y/Q99D/R42S/S66N/T262R/V115G/W38E/Y61H); settings: read-out: IC50 nM to purified HLA DRB1*1302
DRB5*0101 = target: T4, DRB5*0101 (Homo sapiens, UniProt P01903+Q30154)
T4 construct: made in house; host or cells: EBV-transformed homozygous human B cell lines, transfected fibroblasts or single-allele 721.221 transfectants

DRB1*1101 = DRB1*1101 (Homo sapiens, UniProt P01903+P01911, A100R/A169T/A87E/I96F/K41T/L162R/M171V/P40S/Q125H/Q178H/Q39Y/Q99D/R42S/S66Y/T262R/V115G/W38E); settings: read-out: IC50 nM to purified HLA DRB1*1101
DRB1*0701 = DRB1*0701 (Homo sapiens, UniProt P01903+P01911, A100R/A102G/A103Q/D57E/D86V/E43K/F76Y/K127E/L162R/M171V/P40G/Q125H/Q99D/R33Q/R42Y/R54Q/S133A/S66F/T210M/V115G/Y107V/Y59L/Y89S)
DRB1*1501 = target: T5, DRB1*1501 (Homo sapiens, UniProt P01903+P01911); settings: read-out: IC50 nM to purified HLA DRB1*1501
T5 construct: made in house; host or cells: EBV-transformed homozygous human B cell lines, transfected fibroblasts or single-allele 721.221 transfectants

DRB4*0101 = target: T6, DRB4*0101 (Homo sapiens, UniProt P01903+P13762, G164S); settings: IC50 nM to purified HLA DRB4*0101
T6 construct: made in house; host or cells: EBV-transformed homozygous human B cell lines, transfected fibroblasts or single-allele 721.221 transfectants

Chain of DRB1*1302 (P01903 26-254 limits assumed, other chains not shown): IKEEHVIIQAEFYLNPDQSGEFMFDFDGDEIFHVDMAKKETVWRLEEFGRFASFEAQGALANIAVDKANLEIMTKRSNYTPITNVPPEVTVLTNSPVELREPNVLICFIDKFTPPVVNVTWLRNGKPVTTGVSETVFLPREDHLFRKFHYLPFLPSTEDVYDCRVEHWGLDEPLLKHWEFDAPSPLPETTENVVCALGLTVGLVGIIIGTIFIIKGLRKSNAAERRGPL
Chain of DRB1*1101 (P01903 26-254 limits assumed, other chains not shown): as above
T2 sequence (P01903 26-254, other chains not shown): as the sequence (P01903 26-254 limits assumed, other chains not shown) above

Row | Compound | IC50 (DRB1*0404) | IC50 (DRB1*0101) | IC50 (DRB1*0405) | IC50 (DRB1*0301) | IC50 (DRB1*0401) | IC50 (DRB1*1302) | IC50 (DRB5*0101) | IC50 (DRB1*1101) | IC50 (DRB1*0701) | IC50 (DRB5*0101; read-out: IC50 nM to purified HLA DRB5*0101) | IC50 (DRB1*1501) | IC50 (DRB4*0101)
1 | CC[C@H](C)[C@H](NC(=O)[C@H](CCC(=O)O)NC(=O)[C@H](CCC(N)=O)NC(=O)[C@H](CCC(=O)O)NC(=O)[C@@H](NC(=O)[C@H](CCC(=O)O)NC(=O)[C@H](CC(C)C)NC(=O)[C@H](CC(C)C)NC(=O)[C@H](CC(C)C)NC(=O)[C@@H](N)CCC(N)=O)C(C)C)C(=O)N[C@@H](CCCNC(=N)N)C(=O)N[C@H](C(=O)N[C@@H](Cc1ccccc1)C(=O)N[C@@H](CO)C(=O)N[C@@H](Cc1ccccc1)C(=O)O)[C@@H](C)O [Flu.NS2.180] | 1600 nM | 11900 nM | 5140 nM | 792 nM | 13900 nM | – | – | – | – | – | – | –
2 | CC[C@H](C)[C@H](NC(=O)[C@H](CCSC)NC(=O)[C@@H]1CCCN1C(=O)[C@H](CC(N)=O)NC(=O)[C@@H](N)Cc1ccccc1)C(=O)N[C@H](C(=O)N[C@@H](CCC(=O)O)C(=O)N[C@@H](CC(C)C)C(=O)N[C@@H](C)C(=O)N[C@@H](CCC(=O)O)C(=O)N[C@@H](CCCCN)C(=O)N[C@H](C(=O)N[C@@H](CCSC)C(=O)N[C@@H](CCCCN)C(=O)N[C@@H](CCC(=O)O)C(=O)O)[C@@H](C)O)C(C)C [Flu.PA.12] | 610 nM | 48 nM | 1240 nM | 744 nM | 29 nM | 1250 nM | – | – | – | – | – | –
3 | CC[C@H](C)[C@H](NC(=O)[C@H](CCC(=O)O)NC(=O)[C@H](Cc1ccccc1)NC(=O)[C@@H](N)CCCNC(=N)N)C(=O)N[C@H](C(=O)NCC(=O)N[C@H](C(=O)N[C@@H](CCSC)C(=O)N[C@@H](CCCNC(=N)N)C(=O)N[C@@H](CCCNC(=N)N)C(=O)N[C@@H](CC(C)C)C(=O)N[C@@H](C)C(=O)N[C@@H](CC(=O)O)C(=O)N[C@@H](CCC(N)=O)C(=O)N[C@@H](CO)C(=O)O)[C@@H](C)O)[C@@H](C)O [Flu.PA.207] | – | – | – | – | – | – | 9.2 nM | 19 nM | – | – | – | –
4 | CC(C)[C@H](NC(=O)[C@H](CCC(=O)O)NC(=O)[C@H](C)NC(=O)[C@@H](NC(=O)[C@H](Cc1ccccc1)NC(=O)[C@H](Cc1ccc(O)cc1)NC(=O)[C@H](CC(N)=O)NC(=O)[C@@H](N)CCCNC(=N)N)[C@@H](C)O)C(=O)N[C@@H](CO)C(=O)N[C@@H](Cc1c[nH]cn1)C(=O)N[C@@H](CS)C(=O)N[C@@H](CCCNC(=N)N)C(=O)N[C@@H](C)C(=O)N[C@H](C(=O)N[C@@H](CCC(=O)O)C(=O)O)[C@@H](C)O [Flu.PA.446] | 7600 nM | 627 nM | 5720 nM | 883 nM | 45 nM | – | – | – | – | – | – | –
5 | CC[C@H](C)[C@H](NC(=O)[C@H](CCSC)NC(=O)[C@H](CO)NC(=O)[C@@H](N)CCC(=O)O)C(=O)N[C@@H](CCC(=O)O)C(=O)N[C@@H](C)C(=O)N[C@@H](CCC(=O)O)C(=O)N[C@@H](CO)C(=O)N[C@@H](CO)C(=O)N[C@H](C(=O)N[C@@H](CCCCN)C(=O)N[C@@H](CCC(=O)O)C(=O)N[C@@H](CCCCN)C(=O)N[C@@H](CC(=O)O)C(=O)N[C@@H](CCSC)C(=O)O)C(C)C [Flu.PA.596] | 121 nM | – | 72 nM | – | – | – | 600 nM | 12000 nM | – | – | – | –
6 | CC[C@H](C)[C@H](NC(=O)CNC(=O)[C@@H]1CCCN1C(=O)[C@H](Cc1c[nH]cn1)NC(=O)[C@H](CO)NC(=O)[C@H](CCC(=O)O)NC(=O)[C@H](CCC(=O)O)NC(=O)[C@H](CC(C)C)NC(=O)[C@H](Cc1ccccc1)NC(=O)[C@H](C)NC(=O)[C@H](CCSC)NC(=O)[C@H](C)N)C(=O)N[C@@H](Cc1ccccc1)C(=O)N[C@@H](CCC(=O)O)C(=O)N[C@@H](CC(N)=O)C(=O)O [Flu.PB1.94] | – | – | – | 400 nM | – | – | – | – | 84 nM | – | – | –
7 | CC[C@H](C)[C@H](NC(=O)[C@H](CC(N)=O)NC(=O)[C@H](Cc1ccc(O)cc1)NC(=O)[C@H](CC(C)C)NC(=O)[C@H](CC(N)=O)NC(=O)[C@@H]1CCCN1)C(=O)N[C@@H](CCCNC(=N)N)C(=O)N[C@@H](CC(N)=O)C(=O)N[C@@H](CC(C)C)C(=O)N[C@@H](Cc1c[nH]cn1)C(=O)N[C@H](C(=O)N1CCC[C@H]1C(=O)N[C@@H](CCC(=O)O)C(=O)N[C@H](C(=O)N[C@@H](CS)C(=O)O)C(C)C)[C@@H](C)CC [Flu.PB1.599] | – | – | – | – | – | – | – | – | – | 2310 nM | – | –
8 | CC[C@H](C)[C@H](NC(=O)CNC(=O)[C@H](CCCNC(=N)N)NC(=O)[C@@H](N)CCC(N)=O)C(=O)N[C@@H](CC(C)C)C(=O)N[C@@H](CCC(=O)O)C(=O)N[C@@H](CC(=O)O)C(=O)N[C@@H](CCC(=O)O)C(=O)N[C@@H](CCC(N)=O)C(=O)N[C@@H](CCSC)C(=O)N[C@@H](Cc1ccc(O)cc1)C(=O)N[C@@H](CCC(N)=O)C(=O)N[C@@H](CCCCN)C(=O)N[C@@H](CS)C(=O)N[C@@H](CS)C(=O)O [Flu.PB1.682] | 3270 nM | 433 nM | 700 nM | 34 nM | 2560 nM | – | – | – | – | – | – | –
9 | CC[C@H](C)[C@H](NC(=O)CNC(=O)[C@@H](NC(=O)[C@@H]1CCCN1C(=O)[C@H](CCCNC(=N)N)NC(=O)[C@@H](N)CCCNC(=N)N)C(C)C)C(=O)N[C@@H](CO)C(=O)N[C@@H](CO)C(=O)N[C@@H](CCSC)C(=O)N[C@H](C(=O)N[C@@H](CCC(=O)O)C(=O)N[C@@H](C)C(=O)N[C@@H](CCSC)C(=O)N[C@H](C(=O)N[C@@H](CO)C(=O)O)C(C)C)C(C)C [Flu.PB1.709] | – | – | – | – | – | – | – | – | 1800 nM | – | 240 nM | –
10 | CC[C@H](C)[C@H](NC(=O)[C@H](CO)NC(=O)[C@H](CCC(N)=O)NC(=O)[C@H](CCC(=O)O)NC(=O)[C@H](CC(=O)O)NC(=O)[C@H](CCCNC(=N)N)NC(=O)CNC(=O)[C@H](CO)NC(=O)[C@@H](NC(=O)[C@@H](NC(=O)[C@H](CC(C)C)NC(=O)[C@H](CCC(N)=O)NC(=O)[C@@H](NC(=O)[C@@H](N)CC(C)C)[C@@H](C)CC)[C@@H](C)CC)C(C)C)C(=O)N[C@@H](C)C(=O)O [Flu.PB2.384] | 90 nM | 3230 nM | 460 nM | 53 nM | 83 nM | 4680 nM | – | 2010 nM | – | – | 420 nM | 9.9 nM
11 | CC[C@H](C)[C@H](NC(=O)[C@H](CCSC)NC(=O)[C@H](CS)NC(=O)[C@H](CC(=O)O)NC(=O)[C@H](CCC(=O)O)NC(=O)[C@H](CCC(N)=O)NC(=O)[C@H](CO)NC(=O)[C@H](Cc1ccccc1)NC(=O)[C@@H](NC(=O)[C@H](CCSC)NC(=O)[C@H](C)N)C(C)C)C(=O)N[C@@H](CCCCN)C(=O)N[C@@H](C)C(=O)N[C@H](C(=O)N[C@@H](CCCNC(=N)N)C(=O)O)C(C)C [Flu.PB2.404] | 336 nM | 11000 nM | 6780 nM | 718 nM | 3280 nM | 9200 nM | – | – | – | – | – | –
12 | CC[C@H](C)[C@H](NC(=O)[C@H](CO)NC(=O)[C@@H](NC(=O)[C@@H](NC(=O)[C@@H](NC(=O)[C@@H](N)CCCNC(=N)N)C(C)C)C(C)C)C(C)C)C(=O)N[C@@H](CC(=O)O)C(=O)N[C@@H](CCCNC(=N)N)C(=O)N[C@@H](Cc1ccccc1)C(=O)N[C@@H](CC(C)C)C(=O)N[C@@H](CCCNC(=N)N)C(=O)N[C@H](C(=O)N[C@@H](CCCNC(=N)N)C(=O)N[C@@H](CC(=O)O)C(=O)N[C@@H](CCC(N)=O)C(=O)O)C(C)C [Flu.PB2.496] | 400 nM | – | 2050 nM | 67 nM | 111 nM | 8.1 nM | – | – | – | – | – | –
13 | LILYDKEEIRRIWRQ [Flu.NP.111] | 262 nM | 7180 nM | 7500 nM | 22 nM | – | 3100 nM | – | – | – | – | – | –
